T/C data for 21 compounds are collected here from PubChem BioAssay AID248 (DTP/NCI, 2004).

The subject of this experiment is L1210 leukemia ip in BDF1 mice, survival T/C. The experiment can be described thus: NCI In Vivo Anticancer Drug Screen. Data for tumor model L1210 Leukemia (intraperitoneal) in B6D2F1 (BDF1) mice. As to conditions: endpoint: mean survival time, higher = longer survival. The procedure, abridged:
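Mice bearing the transplanted tumor received compound or vehicle. Survival of the treated group was divided by that of the vehicle-treated control group to give the ratio.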

The mark [1] stands for this setting: dose: 75.0 mg/kg/injection, schedule: Q01DX001 (ip), vehicle: saline.
Setting [2] is: dose: 100.0 mg/kg/injection, schedule: Q01DX009 (ip), vehicle: saline.
Where [3] appears, read: dose: 200.0 mg/kg/injection, schedule: Q01DX009 (ip), vehicle: saline.
[4] abbreviates: dose: 100.0 mg/kg/injection, schedule: Q04DX002 (ip), vehicle: saline with Tween-80.
The mark [5] stands for this setting: dose: 200.0 mg/kg/injection, schedule: Q04DX002 (ip), vehicle: saline with Tween-80.
The mark [6] stands for this setting: dose: 100.0 mg/kg/injection, schedule: Q01DX001 (ip), vehicle: Klucel (hydroxypropylcellulose) (HPC).
The mark [7] stands for this setting: dose: 100.0 mg/kg/injection, schedule: Q04DX003 (ip), vehicle: Klucel (hydroxypropylcellulose) (HPC).
Where [8] appears, read: dose: 200.0 mg/kg/injection, schedule: Q01DX001 (ip), vehicle: Klucel (hydroxypropylcellulose) (HPC).
Setting [9] is: dose: 400.0 mg/kg/injection, schedule: Q04DX003 (ip), vehicle: Klucel (hydroxypropylcellulose) (HPC).
Setting [10] is: dose: 200.0 mg/kg/injection, schedule: Q04DX002 (ip), vehicle: Klucel (hydroxypropylcellulose) (HPC).
[11] abbreviates: dose: 400.0 mg/kg/injection, schedule: Q04DX002 (ip), vehicle: Klucel (hydroxypropylcellulose) (HPC).
Where [12] appears, read: dose: 100.0 mg/kg/injection, schedule: Q01DX009 (ip), vehicle: Klucel (hydroxypropylcellulose) (HPC).
[13] abbreviates: dose: 200.0 mg/kg/injection, schedule: Q01DX009 (ip), vehicle: Klucel (hydroxypropylcellulose) (HPC).
Where [14] appears, read: dose: 400.0 mg/kg/injection, schedule: Q01DX009 (ip), vehicle: Klucel (hydroxypropylcellulose) (HPC).

“And” between values parts separate entries of the source, which are not always exact repeats. Identical values can stand only once. Inconclusive results and toxic doses are left out.

Turning to `O=C1Cc2ccccc2C(=O)N1Nc1ccccc1`, the T/C (dose: 22.0 mg/kg/injection, schedule: Q01DX001 (ip), vehicle: saline) is 96 % of control; the T/C (dose: 33.0 mg/kg/injection, schedule: Q01DX001 (ip), vehicle: saline) is 91 % of control; the T/C (dose: 50.0 mg/kg/injection, schedule: Q01DX001 (ip), vehicle: saline) is 93 % of control and 101 % of control; the T/C under setting [1] is 95 % of control; the T/C (dose: 100.0 mg/kg/injection, schedule: Q01DX001 (ip), vehicle: saline) was 101 % of control; the T/C (dose: 200.0 mg/kg/injection, schedule: Q01DX001 (ip), vehicle: saline) was 95 % of control. Moreover, the T/C (dose: 400.0 mg/kg/injection, schedule: Q01DX001 (ip), vehicle: saline) is 95 % of control.
Consider `Cc1nc(C)c(C(=O)O)cc1C(=O)O`, for which the T/C is 104 % of control under setting [2]; 101 % of control under setting [3]; 100 % of control (dose: 400.0 mg/kg/injection, schedule: Q01DX009 (ip), vehicle: saline).
With `c1csc([Si](c2cccs2)(c2cccs2)c2cccs2)c1`, the T/C by setting is: under setting [4], 103 % of control; under setting [5], 89 % of control.
In the case of `Cc1c2cnccc2c(C)c2c1c1ccccc1n2CCCCl`, the T/C is 102 % of control under setting [6]; 96 % of control under setting [7]; 96 % of control under setting [8]; 94 % of control (dose: 200.0 mg/kg/injection, schedule: Q04DX003 (ip), vehicle: Klucel (hydroxypropylcellulose) (HPC)); 94 % of control (dose: 400.0 mg/kg/injection, schedule: Q01DX001 (ip), vehicle: Klucel (hydroxypropylcellulose) (HPC)); 96 % of control under setting [9].
For the compound `CC(=O)c1ccc(S(=O)(=O)NCCCc2c(C)nc(NS(=O)(=O)c3ccc(C(C)=O)cc3)[nH]c2=O)cc1`, the T/C was 98 % of control (dose: 100.0 mg/kg/injection, schedule: Q01DX001 (ip), vehicle: carboxymethylcellulose (CMC)); 96 % of control (dose: 200.0 mg/kg/injection, schedule: Q01DX001 (ip), vehicle: carboxymethylcellulose (CMC)); 93 % of control (dose: 400.0 mg/kg/injection, schedule: Q01DX001 (ip), vehicle: carboxymethylcellulose (CMC)).
Take `CCCCCCCCCC(=O)NN=C(C)C`: the T/C was 92 % of control (dose: 12.5 mg/kg/injection, schedule: Q01DX009 (ip), vehicle: Klucel (hydroxypropylcellulose) (HPC)); 105 % of control (dose: 25.0 mg/kg/injection, schedule: Q01DX009 (ip), vehicle: Klucel (hydroxypropylcellulose) (HPC)); 116 % of control (dose: 50.0 mg/kg/injection, schedule: Q01DX009 (ip), vehicle: Klucel (hydroxypropylcellulose) (HPC)).
`Cc1c(C)c2nc3ccccc3nc2c2ccccc12`: the T/C is, setting by setting: (dose: 50.0 mg/kg/injection, schedule: Q01DX001 (ip), vehicle: Klucel (hydroxypropylcellulose) (HPC)) 98 % of control; under setting [6], 95 % of control; under setting [8], 95 % of control.
Take `CN(C(=O)NCCCl)C1CCCCC1`: for the setting “dose: 75.0 mg/kg/injection, schedule: Q01DX001 (ip), vehicle: carboxymethylcellulose (CMC)”, the T/C was 106 % of control.
In the case of `CC/C(C)=N\NC(=O)c1cccnc1`, the T/C is 110 % of control under setting [2] and 110 % of control under setting [3].
Consider `Cc1cc(-c2cc(C)sc2C)c(C)s1`, for which the T/C runs as follows: (dose: 100.0 mg/kg/injection, schedule: Q01DX009 (ip), vehicle: saline with Tween-80) 87 % of control; (dose: 100.0 mg/kg/injection, schedule: Q04DX003 (ip), vehicle: saline with Tween-80) 96 % of control; (dose: 200.0 mg/kg/injection, schedule: Q01DX009 (ip), vehicle: saline with Tween-80) 92 % of control; (dose: 200.0 mg/kg/injection, schedule: Q04DX003 (ip), vehicle: saline with Tween-80) 94 % of control; (dose: 400.0 mg/kg/injection, schedule: Q01DX009 (ip), vehicle: saline with Tween-80) 94 % of control; (dose: 400.0 mg/kg/injection, schedule: Q04DX003 (ip), vehicle: saline with Tween-80) 96 % of control.
For the compound `CCN(CC#CCOc1ccc(Cl)cc1Cl)c1ccccc1`, the T/C (dose: 100.0 mg/kg/injection, schedule: Q04DX002 (ip), vehicle: Klucel (hydroxypropylcellulose) (HPC)) is 109 % of control; the T/C under setting [10] is 98 % of control; the T/C under setting [11] was 102 % of control.
Take `Cc1cc(=O)c(O)c(N(C)C)o1`: the T/C was 102 % of control under setting [4]; 102 % of control under setting [5]; 115 % of control (dose: 400.0 mg/kg/injection, schedule: Q04DX002 (ip), vehicle: saline with Tween-80).
With `CC1CN=C(c2ccc(NC(=O)c3cccc(C(=O)Nc4ccc(C5=NCC(C)N5)cc4)c3)cc2)N1` (stereo not given), the T/C by setting is: (dose: 4.5 mg/kg/injection, schedule: Q01DX Z (ip), vehicle: carboxymethylcellulose (CMC)) 98 % of control; (dose: 6.8 mg/kg/injection, schedule: Q01DX Z (ip), vehicle: carboxymethylcellulose (CMC)) 95 % of control; (dose: 10.2 mg/kg/injection, schedule: Q01DX Z (ip), vehicle: carboxymethylcellulose (CMC)) 124 % of control; (dose: 16.4 mg/kg/injection, schedule: Q01DX Z (ip), vehicle: carboxymethylcellulose (CMC)) 101 % of control; (dose: 37.0 mg/kg/injection, schedule: Q01DX Z (ip), vehicle: carboxymethylcellulose (CMC)) 155 % of control; (dose: 40.0 mg/kg/injection, schedule: Q01DX Z (ip), vehicle: carboxymethylcellulose (CMC)) 151 % of control. For the same compound, the T/C reads like this: (dose: 50.0 mg/kg/injection, schedule: Q## X010 (oral), vehicle: saline) 97 % of control; (dose: 55.5 mg/kg/injection, schedule: Q01DX Z (ip), vehicle: carboxymethylcellulose (CMC)) 113 % of control and 87 % of control; (dose: 100.0 mg/kg/injection, schedule: Q## X010 (oral), vehicle: saline) 103 % of control; (dose: 200.0 mg/kg/injection, schedule: Q## X010 (oral), vehicle: saline) 96 % of control.
Consider `C/C(=N\n1c(-c2ccccc2)nc2ccccc2c1=O)c1ccc(C)cc1`, for which the T/C under setting [12] was 98 % of control, the T/C under setting [13] was 96 % of control and the T/C under setting [14] is 100 % of control.
As to `COc1ccc(-c2cc(C(=O)O)c3cccc(C(F)(F)F)c3n2)cc1`, the T/C (dose: 100.0 mg/kg/injection, schedule: Q04DX003 (ip), vehicle: saline) was 90 % of control.
In the case of `Cl/C(=C\c1ccccc1)c1ccccc1`, the T/C by setting is: (dose: 25.0 mg/kg/injection, schedule: Q04DX003 (ip), vehicle: Klucel (hydroxypropylcellulose) (HPC)) 96 % of control; (dose: 50.0 mg/kg/injection, schedule: Q04DX003 (ip), vehicle: Klucel (hydroxypropylcellulose) (HPC)) 95 % of control; under setting [7], 96 % of control; under setting [9], 101 % of control.
`Cc1ccnc2c(N)cccc12`: the T/C under setting [1] was 98 % of control.
Consider `C=CCCn1cc(C)c(=O)[nH]c1=O`, for which the T/C is 103 % of control under setting [12], 116 % of control under setting [13] and 100 % of control under setting [14].
Consider `COc1ccc2c(CSc3ncnc4nc[nH]c34)cc(=O)oc2c1`, for which the T/C was 94 % of control under setting [10] and 94 % of control under setting [11].
For the compound `O=C(O)CC1CCC2CC(O)c3cccc1c32` (stereo not given), the T/C (dose: 100.0 mg/kg/injection, schedule: Q04DX003 (ip), vehicle: acetone) was 106 % of control; the T/C (dose: 200.0 mg/kg/injection, schedule: Q04DX003 (ip), vehicle: acetone) is 105 % of control; the T/C (dose: 400.0 mg/kg/injection, schedule: Q04DX003 (ip), vehicle: acetone) is 105 % of control.
With `CN(C)CCCN=C1Nc2ccccc2C(=NCCCN(C)C)Nc2ccccc21`, the T/C is 97 % of control (dose: 12.5 mg/kg/injection, schedule: Q01DX009 (ip), vehicle: saline); 102 % of control (dose: 12.5 mg/kg/injection, schedule: Q04DX003 (ip), vehicle: saline); 97 % of control (dose: 25.0 mg/kg/injection, schedule: Q01DX009 (ip), vehicle: saline); 98 % of control (dose: 25.0 mg/kg/injection, schedule: Q04DX003 (ip), vehicle: saline); 94 % of control (dose: 50.0 mg/kg/injection, schedule: Q01DX009 (ip), vehicle: saline); 104 % of control (dose: 50.0 mg/kg/injection, schedule: Q04DX003 (ip), vehicle: saline).
